What was measured:
sedge, umbrella = experiment: Test D flooded paddy test; format: in vivo, Cyperus difformis; settings: 250 g ai/ha, applied to paddy water, visual rating after 13 to 14 days, scale 0 to 100 (0 no effect, 100 complete control)
Procedure, shortened: (§1)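 Seedlings reached the 2-leaf stage, then pots were flooded to 3 cm over the soil surface. Compound was applied into the water, depth was maintained, and plants stayed in the greenhouse 13 to 14 days before visual scoring (0–100) relative to controls.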

green foxtail [1] = experiment: Test C postemergence; format: in vivo, Setaria viridis; settings: 10 days
Procedure, shortened: (§2)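 Test material, in non-phytotoxic solvent with surfactant, was sprayed on the soil directly after seeding (preemergence) or on young plants of 2–10 cm with one to two leaves (postemergence). Greenhouse, 10 days; 0–100 visual control scale.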

blackgrass [2] = experiment: Test C postemergence; format: in vivo, Alopecurus myosuroides; settings: 10 days
Procedure, shortened: as §2

oat, wild [3] = experiment: Test C preemergence; format: in vivo, Avena fatua; settings: 0 to 100 scale (0 no effect, 100 complete control)
Procedure, shortened: as §2

ryegrass, Italian [4] = experiment: Test C preemergence; format: in vivo, Lolium multiflorum; settings: 0 to 100 scale (0 no effect, 100 complete control)
Procedure, shortened: as §2

oat, wild [5] = experiment: Test C postemergence; format: in vivo, Avena fatua; settings: 10 days
Procedure, shortened: as §2

corn [6] = experiment: Test C preemergence; format: in vivo, Zea mays; settings: 0 to 100 scale (0 no effect, 100 complete control)
Procedure, shortened: as §2

horseweed = experiment: Test C postemergence; format: in vivo, Erigeron canadensis; settings: 10 days
Procedure, shortened: as §2

soybean [7] = experiment: Test C preemergence; format: in vivo, Glycine max; settings: 0 to 100 scale (0 no effect, 100 complete control)
Procedure, shortened: as §2

ryegrass, Italian [8] = experiment: Test C postemergence; format: in vivo, Lolium multiflorum; settings: 10 days
Procedure, shortened: as §2

wheat [9] = experiment: Test C postemergence; format: in vivo, Triticum aestivum; settings: 10 days
Procedure, shortened: as §2

barnyardgrass [10] = experiment: Test C postemergence; format: in vivo, Echinochloa crusgalli; settings: 10 days
Procedure, shortened: as §2

kochia [11] = experiment: Test C postemergence; format: in vivo, Bassia scoparia; settings: 10 days
Procedure, shortened: as §2

blackgrass [12] = experiment: Test C preemergence; format: in vivo, Alopecurus myosuroides; settings: 0 to 100 scale (0 no effect, 100 complete control)
Procedure, shortened: as §2

barnyardgrass [13] = experiment: Test D flooded paddy test; format: in vivo, Echinochloa crus-galli; settings: 250 g ai/ha, applied to paddy water, visual rating after 13 to 14 days, scale 0 to 100 (0 no effect, 100 complete control)
Procedure, shortened: as §1

pigweed, palmer [14] = experiment: Test C preemergence; format: in vivo, Amaranthus palmeri; settings: 0 to 100 scale (0 no effect, 100 complete control)
Procedure, shortened: as §2

soybean [15] = experiment: Test C postemergence; format: in vivo, Glycine max; settings: 10 days
Procedure, shortened: as §2

galium = experiment: Test C postemergence; format: in vivo, Galium aparine; settings: 125 g ai/ha, postemergence, 10 days; 0 to 100 scale, 0 no effect, 100 complete control
Procedure, shortened: as §2

barnyardgrass [16] = experiment: Test C preemergence; format: in vivo, Echinochloa crusgalli; settings: 0 to 100 scale (0 no effect, 100 complete control)
Procedure, shortened: as §2

ragweed [17] = experiment: Test C postemergence; format: in vivo, Ambrosia artemisiifolia; settings: 10 days
Procedure, shortened: as §2

ducksalad = experiment: Test D flooded paddy test; format: in vivo, Heteranthera limosa; settings: 250 g ai/ha, applied to paddy water, visual rating after 13 to 14 days, scale 0 to 100 (0 no effect, 100 complete control)
Procedure, shortened: as §1

ragweed [18] = experiment: Test C preemergence; format: in vivo, Ambrosia artemisiifolia; settings: 0 to 100 scale (0 no effect, 100 complete control)
Procedure, shortened: as §2

wheat [19] = experiment: Test C preemergence; format: in vivo, Triticum aestivum; settings: 0 to 100 scale (0 no effect, 100 complete control)
Procedure, shortened: as §2

green foxtail [20] = experiment: Test C preemergence; format: in vivo, Setaria viridis; settings: 0 to 100 scale (0 no effect, 100 complete control)
Procedure, shortened: as §2

rice = experiment: Test D flooded paddy test; format: in vivo, Oryza sativa; settings: 250 g ai/ha, applied to paddy water, visual rating after 13 to 14 days, scale 0 to 100 (0 no effect, 100 complete control)
Procedure, shortened: as §1

pigweed, palmer [21] = experiment: Test C postemergence; format: in vivo, Amaranthus palmeri; settings: 10 days
Procedure, shortened: as §2

corn [22] = experiment: Test C postemergence; format: in vivo, Zea mays; settings: 10 days
Procedure, shortened: as §2

kochia [23] = experiment: Test C preemergence; format: in vivo, Bassia scoparia; settings: 0 to 100 scale (0 no effect, 100 complete control)
Procedure, shortened: as §2

[24] = 125 g ai/ha, postemergence, 0 to 100 scale, 0 no effect, 100 complete control
[25] = Postemergence, 500 g ai/ha, visual 0 to 100 scale (0 no effect, 100 complete control)
[26] = Preemergence, 500 g ai/ha, visual rating after 10 days
[27] = Test C, preemergence, 125 g ai/ha

Cc1ccc(-n2cnc(C[S+](C)[O-])n2)cc1C(=O)N1C[C@H](C)Oc2c(Cl)cccc21 (stereo partly drawn) [Compound 224]
100: Plant response rating, Soybean (soybean [7]; [26]) | Plant response rating, Ryegrass, Italian (ryegrass, Italian [8]; [25]) | Plant response rating, Pigweed, Palmer (pigweed, palmer [14]; [26]) | Plant response rating, Soybean (soybean [15]; [24]) | Plant response rating, Soybean (soybean [15]; [25]) | Plant response rating, Galium (galium) | Plant response rating, Foxtail, Green (green foxtail [20]; [26]) | Foxtail, Green plant response rating (green foxtail [20]; [27])
0: Corn plant response rating (corn [6]; [27]) | Ragweed plant response rating (ragweed [18]; [27]) | Wheat plant response rating (wheat [19]; [27])
60: Soybean plant response rating (soybean [7]; [27]) | Plant response rating, Wheat (wheat [9]; [25])
20: Plant response rating, Foxtail, Green (green foxtail [1]; [24]) | Plant response rating, Corn (corn [6]; [26]) | Plant response rating, Wheat (wheat [9]; [24]) | Blackgrass plant response rating (blackgrass [12]; [27])
98: Plant response rating, Sedge, Umbrella (Flood) (sedge, umbrella)
90: Plant response rating, Oat, Wild (oat, wild [3]; [26]) | Plant response rating, Kochia (kochia [11]; [24]) | Plant response rating, Kochia (kochia [11]; [25]) | Pigweed, Palmer plant response rating (pigweed, palmer [14]; [27]) | Plant response rating, Barnyardgrass (barnyardgrass [16]; [26]) | Plant response rating, Pigweed, Palmer (pigweed, palmer [21]; [24]) | Plant response rating, Pigweed, Palmer (pigweed, palmer [21]; [25]) | Plant response rating, Corn (corn [22]; [25])
15: Plant response rating, Rice (Flood) (rice)
50: Plant response rating, Oat, Wild (oat, wild [5]; [24]) | Plant response rating, Horseweed (horseweed; [25]) | Plant response rating, Ryegrass, Italian (ryegrass, Italian [8]; [24]) | Plant response rating, Barnyardgrass (barnyardgrass [10]; [25]) | Plant response rating, Ragweed (ragweed [17]; [24]) | Plant response rating, Wheat (wheat [19]; [26]) | Plant response rating, Corn (corn [22]; [24])
95: Plant response rating, Ducksalad (Flood) (ducksalad)
70: Plant response rating, Foxtail, Green (green foxtail [1]; [25]) | Plant response rating, Blackgrass (blackgrass [2]; [25]) | Ryegrass, Italian plant response rating (ryegrass, Italian [4]; [27]) | Plant response rating, Oat, Wild (oat, wild [5]; [25]) | Plant response rating, Blackgrass (blackgrass [12]; [26]) | Plant response rating, Ragweed (ragweed [17]; [25]) | Plant response rating, Kochia (kochia [23]; [26])
40: Barnyardgrass plant response rating (barnyardgrass [16]; [27]) | Plant response rating, Ragweed (ragweed [18]; [26]) | Kochia plant response rating (kochia [23]; [27])
10: Plant response rating, Barnyardgrass (barnyardgrass [10]; [24]) | Plant response rating, Barnyardgrass (Flood) (barnyardgrass [13])
30: Plant response rating, Blackgrass (blackgrass [2]; [24]) | Oat, Wild plant response rating (oat, wild [3]; [27]) | Plant response rating, Horseweed (horseweed; [24])
80: Plant response rating, Ryegrass, Italian (ryegrass, Italian [4]; [26])
